Data: US6437138B1, “3-pyridyloxymethyl heterocyclic ether compounds useful in controlling chemical synaptic transmission” (priority 1996, dated 2002)
Counter-ions that a name gives are not always drawn.

Molecular target: neuronal nicotinic cholinergic channels in IMR-32 cells (Homo sapiens, UniProt P30926+P32297)
Assay: 86Rb+ efflux in IMR-32 cells (activation, or inhibition of efflux elicited by (S)-nicotine)
Assay type: cell-based
Conditions: 86Rb+ efflux; percent relative to the response elicited by 100 μM (S)-nicotine
Excerpt: For the purpose of directly evaluating the ability of test compounds to functionally activate or inhibit certain subtypes of neuronal nicotinic cholinergic channels, an assay to determine ^86Rb^+Efflux in IMR-32 cells was employed (Protocol B below).
B. Protocols for the Determination of Functional Effects of Cholinerzic Channel Receptor Ligands on Synaptic Transmission
Cells of the IMR-32 human neuroblastoma clonal cell line (ATCC, Rockville, Md.) were maintained in a log phase of growth according to established procedures (Lukas, 1993). Experimental cells were seeded at a density of 500,000 cells/ml into a 24-well tissue culture dish. Plated cells were allowed to proliferate for at least 48 hours before loading with 2 μCi/ml of ^86Rb^+ (35 Ci/mmol) overnight at 37° C. The ^86Rb^+ efflux assays were performed according to previously published protocols (Lukas, R. J., J. Pharmacol. Exp. Ther., 265: 294-302, 1993) except serum-free Dulbecco's Modified Eagle's Medium was used during the ^86Rb^+ loading, rinsing, and agonist-induced efflux steps.
EC50 data and maximal responses (reported as percent relative to the response elicited by 100 μM (S)-nicotine) are shown for selected compounds of the invention. The inhibition data (given for a larger number of compounds) reflect inhibition of the efflux elicited by 100 μM (S)-nicotine for either a single dose (% inhibition at 1 μM or at 10 μM) or over a range of doses (IC50 of inhibition). […] This finding is in agreement with the results of others who have linked dopamine release, which is dependent upon the ion flux in synaptic transmission, to binding at nicotinic receptors (cf., for example, Lippiello and Caldwell, U.S. Pat. No. 5,242,935, issued Sep. 7, 1993; Caldwell and Lippiello, U.S. Pat. No. 5,248,690, issued Sep. 28, 1993; and Wonnacott et al., Prog. Brain Res., 79: 157-163 (1989)).

| Structure (SMILES) | IMR-32 maximal response [%] |
| --- | --- |
| Cl.Cl.c1ccc(-c2cncc(OC[C@@H]3CCN3)c2)cc1 [Example 56, 5-Phenyl-3-(2-(S)-azetidinylmethoxy)pyridine Dihydrochloride] | 20 |

Same assay, conditions: IMR-32; 86Rb+ efflux; percent relative to the response elicited by 100 μM (S)-nicotine; read-out: IMR-32 maximal response

| Structure (SMILES) | Emax [%] |
| --- | --- |
| C(=C\c1cncc(OC[C@H]2CCCN2)c1)/c1ccncc1 [Example 86, 5-(2-(4-Pyridinyl)ethenyl)-3-(2-(R)-pyrroylidinylmethoxy)pyridine Trihydrochloride] | 44 |
| Clc1ncc(OC[C@@H]2CCN2)cc1-c1ccccc1 [Example 67, 5-Phenyl-6-chloro-3-(2-(S)-azetidinylmethoxy)pyridine Hidrochloride] | 90 |
| CN1CCC[C@@H]1COc1cnc(Cl)c(-c2ccccc2)c1 [Example 69, 5-Phenyl-6-chloro-3-(1-methyl-2-(R)-pyrrolidinylmethoxy)pyridine Dihydrochloride] | 6 |
| Clc1ncc(OC[C@H]2CCCN2)cc1C=Cc1ccncc1 [Example 81, 5-(2-(4-Pyridinyl)ethenyl)-6-chloro-3-(2-(R)-pyrrolidinylmethoxy)pyridine Dihydrochloride] | 32 |
| c1csc(-c2cncc(OC[C@@H]3CCN3)c2)c1 [Example 154, 3-(2-(S)-Azetidinylmethoxy)-5-(2-thienyl)pyridine Dihydrochloride] | 1.5 |
| O=C(NCc1cc(OC[C@@H]2CCN2)cnc1Cl)c1ccccc1 [Example 92, 3-(2-(S)-Azetidinylmethoxy)-5-(N-benzoylamino)methyl-6-chloropyridine Hydrochloride] | 25 |
| CC(=O)NCc1cc(OC[C@@H]2CCN2)cnc1Cl [Example 206, 5-Acetamidomethyl-3-(2-(S)-azetidinylmethoxy)-6-chloropyridine Dihydrochloride] | 11 |
| C=CCc1cncc(OC[C@@H]2CCN2)c1 [Example 181, 5-Allyl-3-(2-(S)-azetidinylmethoxy)pyridine Hydrochloride] | 82 |

Same assay, conditions: IMR-32; inhibition of the efflux elicited by 100 μM (S)-nicotine; single dose 1 μM

| Structure (SMILES) | inhibition at 1 µM [%] |
| --- | --- |
| CCCCCCC#Cc1cncc(OC[C@@H]2CCCN2C)c1 [Example 49, 5-Octynyl-3-(1-methyl-2-(S)-pyrrolidinylmethoxy)pyridine Dihydrochloride] | 33 |
| CN1CCC[C@H]1COc1cncc(C=Cc2ccncc2)c1 [Example 13, 5-(2-(4-Pyridinyl)ethenylyl)-3-((1-methyl-2-(S)-pyrrolidinylmethoxy)pyridine Triihydrochloride] | 50 |
| CN1CCC[C@H]1COc1cncc(C#CCCCc2ccccc2)c1 [Example 17, 5-(5-Phenyl-1-pentynyl)-3-(1-methyl-2-(S)-pyrrolidinylmethoxy)pyridine Dihydrochloride] | 32 |
| CCCCC#Cc1cncc(OC[C@@H]2CCCN2C)c1 [Example 4, 5-Hexynyl-3-(1-methyl-2-(S)-pyrrolidinylmethoxy)pyridine Dihydrochloride] | 55 |
| CN1CCC[C@H]1COc1cncc(C#CCCCCO)c1 [Example 28, 5-(6-Hydroxy-1-hexynyl)-3-(1-methyl-2-(S)-pyrrolidipylmethoxy)pyridine Dihydrochloride] | 20 |
| COC(=O)C=Cc1cncc(OC[C@@H]2CCCN2C)c1 [Example 16, 5-(2-(Methoxycarbonyl)ethenyl-3-(1-methyl-2-(S)-pyrrolidinylmethoxy)pyridine Dihydrochloride] | 6 |

Same assay, conditions: IMR-32; inhibition of the efflux elicited by 100 μM (S)-nicotine; single dose 10 μM

| Structure (SMILES) | inhibition at 10 µM [%] |
| --- | --- |
| CN1CCC[C@H]1COc1cncc(C#CCCCc2ccccc2)c1 [Example 17, 5-(5-Phenyl-1-pentynyl)-3-(1-methyl-2-(S)-pyrrolidinylmethoxy)pyridine Dihydrochloride] | 100 |

Same assay, conditions: inhibition of the efflux elicited by 100 μM (S)-nicotine; single dose 1 μM

| Structure (SMILES) | % Inhibition @ 1 μM [%] |
| --- | --- |
| Cl.Cl.c1ccc(-c2cncc(OC[C@@H]3CCN3)c2)cc1 [Example 56, 5-Phenyl-3-(2-(S)-azetidinylmethoxy)pyridine Dihydrochloride] | 16 |

Tested on: not given
Assay: not given
Conditions: not given

| melting point | Structure (SMILES) |
| --- | --- |
| 208 to 210 °C | Clc1ncc(OC[C@@H]2CCCN2)cc1-c1cccs1 (as salt: hydrochloride) [Example 152, 6-Chloro-3-(2-(S)-pyrrolidinolmethoxy)-5-(2-thienyl)pyridine Dihydrochloride] |
| 187 to 188 °C | CN1CC[C@H]1COc1cnc(Cl)c(-c2ccccc2)c1 (as salt: salt) [Example 68, 5-Phenyl-6-chloro-3-(1-methyl-2-(S)-azetidinylmethoxy)pyridine Hidrochloride] |
| 90 to 92 °C | C=CCc1cc(OC[C@H]2CCCN2)cnc1Cl.Cl [Example 185, 5-Allyl-6-chloro-3-(2-(R)-pyrrolidinylmethoxy)pyridine Hydrochloride] |
| 230 °C (dec.) | Cl.Clc1ncc(OC[C@@H]2CCCN2)cc1-c1cncnc1 [Example 169, 6-Chloro-5-(5-pyrimidinyl)-3-(2-(S)-pyrrolidinylmethoxy)pyridine Hydrochloride] |
| 133 to 135 °C | CCCCCCC#Cc1cc(OC[C@@H]2CCCN2)cnc1Cl.Cl.Cl [Example 140, 6-Chloro-5-(1-octynyl)-3-(2-(S)-pyrrolidinylmethoxy)pyridine Dihydrochloride] |
| 173 to 176 °C | CC(=O)c1cc(OC[C@@H]2CCCN2)cnc1Cl.Cl.Cl [Example 32, 5-Acetyl-6-chloro-3-(2-(S)-pyrrolidinylmethoxy)pyridine Dihydrochloride] |
| 210 °C (dec.) | Cl.Clc1ncc(OC[C@H]2CCCN2)cc1-c1cncnc1 [Example 173, 6-Chloro-5-(5-pyrimidinyl)-3-(2-(R)-pyrrolidinylmethoxy)pyridine Hydrochloride] |
| 90 to 92 °C | C=CCc1cc(OC[C@@H]2CCN2)cnc1Cl.Cl [Example 178, 5-Allyl-3-(2-(S)-azetidinylmethoxy)-6-chloropyridine Hydrochloride] |
| 172 to 174 °C | Cl.Cl.c1ccc(COc2cncc(OC[C@@H]3CCN3)c2)cc1 [Example 199, 3-(2-(S)-Azetidinylmethoxy)-5-benzyloxypyridine Dihydrochloride] |
| 236 to 238 °C | CN1CCC[C@@H]1COc1cnc(Cl)c(CCc2ccncc2)c1.Cl.Cl.Cl [Example 83, 5-(2-(4-Pyridinyl)ethyl)-6-chloro-3-(1-methyl-2-(R)-pyrrolidinylmethoxy)pyridine Trihydrochloride] |
| 240 to 242 °C | Cl.Cl.Cl.Nc1cccc(-c2cncc(OC[C@H]3CCCN3)c2)c1 [Example 88, 5-(3-Aminophenyl)-3-(2-(R)-pyrrolidinylmethoxy)pyridine Trihydrochloride] |
| 194 °C (dec.) | CN1CCC[C@@H]1COc1cnc(Cl)c(C=CC=CC(C)(C)C)c1.Cl.Cl [Example 78, 5-(5,5-Dimethyl-1,3-hexadienyl)-6-chloro-3-(1-methyl-2-(R)-pyrrolidinylmethoxy)pyridine Dihydrochloride] |
| 143 to 144 °C | CN1CC[C@H]1COc1cnc(Cl)c(-c2cncnc2)c1.Cl [Example 170, 6-Chloro-3-(1-methyl-2-(S)-azetidinylmethoxy)-5-(5-pyrimidinyl)pyridine Hydrochloride] |
| 180 to 182 °C | Cl.Cl.Clc1ccc(-c2cncc(OC[C@@H]3CCCN3)c2)cc1 [Example 20, 5-(4-chlorophenyl)-3-(2-(S)-pyrrolidinylmethoxy)pyridine Dihydrochloride] |
| 176 to 178 °C | CN1CCC[C@@H]1COc1cnc(Cl)c(-c2ccc(Cl)cc2)c1 (as salt: hydrochloride) [Example 76, 5-(4-Clhorophenyl)-6-chloro-3-(1-methyl-2-(R)-pyrrolidinylmethoxy)pyridine Hydrochloride] |

Further lines, the compound ahead of its results:

| Structure (SMILES) | melting point |
| --- | --- |
| CC(C)(C)C=CC=Cc1cncc(OC[C@@H]2CCN2)c1 (as salt: hydrochloride) [Example 163, 3-(2-(S)-Azetidinylmethoxy)-5-(5,5-dimethyl-1,3-hexadiene)pyridine Dihydrochloride] | 142 to 144 °C |
| CCCCCCC#Cc1cncc(OC[C@@H]2CCN2)c1 (as salt: hydrochloride) [Example 63, 5-Octynyl-3-(2-(S)-azetidinylmethoxy)pyridine Dihydrochloride] | 88 to 90 °C |
| CN1CCC[C@H]1COc1cncc(C#CCCCC#N)c1 (as salt: hydrochloride) [Example 14, (5-(5-Cyano-1-pentynyl-3-(1-methyl-2-(S)-pyrrolidinylmethoxy)pyridine Dihydrochloride] | 165 to 167 °C |
| COCCOc1cncc(OC[C@@H]2CCCN2C)c1 (as salt: hydrochloride) [Example 198, 5-Methoxyethoxy-3-(1-methyl-(2S)-pyrrolidinylmethoxy)pyridine Dihydrochloride] | 196 to 197 °C |
| COC(=O)c1cncc(OC[C@@H]2CCCN2C)c1 (as salt: hydrochloride) [Example 27, 5-Methoxycarbonol-3-(1-methyl-2-(S)-pyrrolidinylmethoxy)pyridine Dihydrochloride] | 165 to 167 °C |
| CCCCCCC#Cc1cncc(OC[C@H]2CCCN2C)c1.Cl.Cl [Example 145, 3-(1-Methyl-2-(R)-pyrrolidinylmethoxy)-5-(1-octynyl)pyridine Dihydrochloride] | 102 to 105 °C |
